Laboratory results reported in US8361998B2, “Compounds and their use as IKACh blockers” (AstraZeneca AB, priority 2010, dated 2013).

What follows are molecules tested against T1, human cardiac ion channel proteins hKir3.1/Kir3.4 (Homo sapiens, UniProt P48544+P48549) (assay: Atomic Absorption Screening (AAS) Rb efflux assay of hKir3.1/Kir3.4 block, carbachol/high K+ stimulated, 10-pt or 7-pt CR). Details: 7-pt CR (0.037 to 27 μmol/L), AAS Rb efflux, CHO-K1 cells expressing hKir3.1/Kir3.4; mean of >3 replicates; read-out: IKACh IC50 7-pt CR, AAS.
T1 construct: expressed in transfected cells
T1 sequence (P48549 1-501): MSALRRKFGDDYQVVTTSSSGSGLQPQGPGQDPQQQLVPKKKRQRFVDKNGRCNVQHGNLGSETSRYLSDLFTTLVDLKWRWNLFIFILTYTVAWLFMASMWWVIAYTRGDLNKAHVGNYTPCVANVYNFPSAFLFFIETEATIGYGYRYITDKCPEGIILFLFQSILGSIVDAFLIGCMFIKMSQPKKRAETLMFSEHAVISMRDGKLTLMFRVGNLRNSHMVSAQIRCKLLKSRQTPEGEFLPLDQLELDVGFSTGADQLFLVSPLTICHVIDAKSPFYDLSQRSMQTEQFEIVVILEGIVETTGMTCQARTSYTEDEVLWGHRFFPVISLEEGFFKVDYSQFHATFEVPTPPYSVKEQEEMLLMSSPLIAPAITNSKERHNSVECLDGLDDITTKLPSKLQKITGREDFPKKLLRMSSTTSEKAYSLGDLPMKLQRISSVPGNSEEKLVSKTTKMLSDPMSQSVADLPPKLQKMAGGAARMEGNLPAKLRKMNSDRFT
T1 sequence (P48544 1-419): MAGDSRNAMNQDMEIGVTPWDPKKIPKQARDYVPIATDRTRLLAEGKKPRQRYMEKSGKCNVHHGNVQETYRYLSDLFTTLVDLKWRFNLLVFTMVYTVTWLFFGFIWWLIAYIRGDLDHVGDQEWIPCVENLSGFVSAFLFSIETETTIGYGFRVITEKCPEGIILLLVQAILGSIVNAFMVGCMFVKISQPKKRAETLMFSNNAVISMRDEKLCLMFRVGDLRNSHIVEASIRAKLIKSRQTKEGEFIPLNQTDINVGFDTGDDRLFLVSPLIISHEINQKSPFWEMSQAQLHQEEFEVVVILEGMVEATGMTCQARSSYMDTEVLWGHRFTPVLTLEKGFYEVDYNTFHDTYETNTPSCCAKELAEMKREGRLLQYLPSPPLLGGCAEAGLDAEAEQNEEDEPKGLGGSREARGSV
Type: cell-based
Summary of the method: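 CHO-K1 cells stably co-expressing human Kir3.1/Kir3.4 were Rb-loaded for 3 h at 37° C, preincubated with compound 5 min at RT, then stimulated 10 min with 10 μM carbachol plus 20 mM KCl (final). Supernatant Rb was measured by atomic absorption. Compounds ran at 0.003–67 μmol/L (10-pt) or 0.037–27 μmol/L (7-pt), threefold dilutions; IC50s are means of >4 or >3 replicates respectively.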

In order of falling IC50:
1. CC(C)[C@@H](CN1CCCC1)N(C)C(=O)c1cc(F)cc(C(F)(F)F)c1 [Example 16.8, (S)-3-Fluoro-N-methyl-N-(3-methyl-1-(pyrrolidin-1-yl)butan-2-yl)-5-(trifluoromethyl)benzamide]  8 µM
2. CC(C)[C@@H](CN1CCCC1)N(C)C(=O)c1cc(F)cc(F)c1F [Example 16.9, (S)-2,3,5-Trifluoro-N-methyl-N-(3-methyl-1-(pyrrolidin-1-yl)butan-2-yl)benzamide]  3.9 µM
3. CC(C)[C@@H](CN1CCCC1)N(C)C(=O)c1cccc(C(F)(F)F)c1 [Example 16.10, (S)—N-Methyl-N-(3-methyl-1-(pyrrolidin-1-yl)butan-2-yl)-3-(trifluoromethyl)benzamide]  2.6 µM

Same assay, conditions: 10-pt CR (0.003 to 67 μmol/L), AAS Rb efflux, CHO-K1 cells expressing hKir3.1/Kir3.4; mean of >4 replicates; read-out: IKACh IC50 10-pt CR, AAS

In order of falling IC50:
1. CN(C(=O)c1ccc(Cl)cc1)C(C)(C)CN1CCCC1 [Example 16.6, 4-Chloro-N-methyl-N-(2-methyl-1-(pyrrolidin-1-yl)propan-2-yl)benzamide]  20 µM
2. CCN(C(=O)c1ccc(F)c(C)c1)[C@H](CN1CCCC1)C(C)C [Example 15.2, (S)-N-Ethyl-4-fluoro-3-methyl-N-(3-methyl-1-(pyrrolidin-1-yl)butan-2-yl)benzamide]  18 µM
3. COc1cc(C(=O)N(C)[C@H](CN2CCCC(F)(F)C2)C(C)C)ccc1C [Example 16.4, (S)—N-(1-(3,3-Difluoropiperidin-1-yl)-3-methylbutan-2-yl)-3-methoxy-N,4-dimethylbenzamide]  18 µM
4. CC(C)[C@@H](CN1CCCC(F)(F)C1)N(C)C(=O)c1ccc(F)c(Cl)c1 [Example 16.1, (S)-3-Chloro-N-(1-(3,3-difluoropiperidin-1-yl)-3-methylbutan-2-yl)-4-fluoro-N-methylbenzamide]  17 µM
5. Cc1cc(C(=O)N(C)[C@H](CN2CCCC2)[C@@H](C)OC(C)(C)C)ccc1F [Example 14, N-((2R,3R)-3-Tert-butoxy-1-(pyrrolidin-1-yl)butan-2-yl)-4-fluoro-N,3-dimethylbenzamide]  16 µM
6. CC(C)[C@@H](CN1CCCC(F)(F)C1)N(C)C(=O)c1ccc(F)c(C(F)(F)F)c1 [Example 16.2, (S)—N-(1-(3,3-Difluoropiperidin-1-yl)-3-methylbutan-2-yl)-4-fluoro-N-methyl-3-(trifluoromethyl)benzamide]  15 µM
7. CN(C(=O)c1ccc(Br)cc1)C(C)(C)CN1CCCC1 [Example 16.7, 4-Bromo-N-methyl-N-(2-methyl-1-(pyrrolidin-1-yl)propan-2-yl)benzamide]  14 µM
8. CC(C)[C@@H](CN1CCCC1)N(C)C(=O)c1cc(F)cc(F)c1F [Example 16.9, (S)-2,3,5-Trifluoro-N-methyl-N-(3-methyl-1-(pyrrolidin-1-yl)butan-2-yl)benzamide]  14 µM
9. CCN(C(=O)c1ccc(Br)cc1)[C@H](CN1CCCC1)C(C)C [Example 15.1, (S)-4-Bromo-N-ethyl-N-(3-methyl-1-(pyrrolidin-1-yl)butan-2-yl)benzamide]  11 µM
10. Cc1ccc(C(=O)N(C)[C@H](CN2CCCC(F)(F)C2)C(C)C)cc1C [Example 16.3, (S)—N-(1-(3,3-Difluoropiperidin-1-yl)-3-methylbutan-2-yl)-N,3,4-trimethylbenzamide]  11 µM
11. CC(C)[C@@H](CN1CCCC(F)(F)C1)N(C)C(=O)c1ccc(Br)cc1 [Example 16.5, (S)-4-Bromo-N-(1-(3,3-difluoropiperidin-1-yl)-3-methylbutan-2-yl)-N-methyl-benzamide]  11 µM
12. CCN(C(=O)c1ccc(Cl)cc1)[C@H](CN1CCCC1)C(C)C [Example 15.3, (S)-4-Chloro-N-ethyl-N-(3-methyl-1-(pyrrolidin-1-yl)butan-2-yl)benzamide]  7.4 µM
13. COCCN(C(=O)c1ccc(Cl)cc1)[C@H](CN1CCCC1)C(C)C [Example 15.4, (S)-4-Chloro-N-(2-methoxyethyl)-N-(3-methyl-1-(pyrrolidin-1-yl)butan-2-yl)benzamide]  5.7 µM
14. COCCN(C(=O)c1ccc(Br)cc1)[C@H](CN1CCCC1)C(C)C [Example 15.5, (S)-4-Bromo-N-(2-methoxyethyl)-N-(3-methyl-1-(pyrrolidin-1-yl)butan-2-yl)benzamide]  2.3 µM
